# Compound: O=C(/C=C/c1cccnc1)NCCCCC1CCN(C(=O)c2ccccc2)CC1 [Daporinad] + CC(=O)c1c(C)c2cnc(Nc3ccc(N4CCNCC4)cn3)nc2n(C2CCCC2)c1=O [Palbociclib] (partner 0.5 µM)
# Experiment: relative viability (nuclei count vs DMSO), 5 days (fraction); higher = more cells survive
# Conditions: first compound 0.0005 µM
# Procedure, shortened: (§1)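 Lung cancer cell lines were pin-tool dosed in 1536-well plates on the day after seeding, with either a lone drug or a fixed anchor-drug dose plus five library-drug doses (not always all listed) in √10 steps. Nuclei were counted on 4× images after 5 days. Relative viability is the ratio of treated-well to vehicle-well nuclei counts, with each value a median of duplicate plates.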
row,Cell Line,relative viability
1,NCI-H522,1.06
2,NCI-H2342,0.513
3,NCI-H838,0.254
4,NCI-H1650,0.321
5,NCI-H1993,0.583
6,NCI-H441,0.186
7,PC-14,0.564
8,LCLC-103H,0.526
9,NCI-H2126,0.358
10,EMC-BAC-2,0.513
11,NCI-H2085,0.41
12,HCC-366,0.451
13,NCI-H1666,0.653
14,NCI-H647,0.251
15,LK-2,0.637
16,NCI-H2087,0.215
17,NCI-H358,0.111
18,NCI-H2170,0.351
19,H3255,0.308
20,COR-L23,0.302
21,COR-L 105,0.395
22,LOU-NH91,0.442
23,ChaGo-K-1,0.914
24,NCI-H1793,0.305

row,Cell Line,relative viability
1,NCI-H2405,0.54
2,HOP-62,0.399
3,HCC-44,0.97
4,SK-MES-1,0.332
5,LU99A,0.381
6,BEN,0.528
7,HARA,0.258
8,SW 900,0.432
9,HCC-78,0.449
10,NCI-H322M,0.495
11,LCLC-97TM1,0.194
12,NCI-H2009,0.204
13,A-427,0.475
14,NCI-H460,0.153
15,NCI-H727,0.694
16,NCI-H1734,0.361
17,NCI-H520,0.209
18,NCI-H2347,0.447
19,SW 1573,0.387
20,NCI-H1395,0.659
21,201T,0.379
22,NCI-H1915,0.569
23,HCC-827,0.419
24,LXF-289,0.59

row,Cell Line,relative viability
1,NCI-H23,0.578
2,NCI-H650,0.351
3,CAL-12T,0.332
4,NCI-H1651,0.537
5,EPLC-272H,0.338
6,NCI-H2228,0.67
7,NCI-H1792,0.637
8,NCI-H1355,0.413
9,NCI-H3122,0.168
10,NCI-H1437,0.274
11,NCI-H1755,0.456
12,NCI-H2023,0.402
13,HCC-15,0.692
14,PC-3 [JPC-3],0.548
15,EKVX,0.435
16,LC-2-ad,0.463
17,NCI-H1648,0.305
18,NCI-H1975,0.565
19,SK-LU-1,0.336
20,ABC-1,0.87
21,NCI-H1944,0.36
22,NCI-H661,0.389
23,RERF-LC-KJ,1.08

# Same assay, conditions: first compound 0.001581 µM
row,Cell Line,relative viability
1,NCI-H522,1.06
2,NCI-H2342,0.506
3,NCI-H838,0.258
4,NCI-H1650,0.413
5,NCI-H1993,0.563
6,NCI-H441,0.209
7,PC-14,0.522
8,LCLC-103H,0.556
9,NCI-H2126,0.32
10,EMC-BAC-2,0.546
11,NCI-H1666,0.679
12,NCI-H647,0.429
13,LK-2,0.765
14,NCI-H2087,0.242
15,NCI-H358,0.135
16,NCI-H2170,0.39
17,H3255,0.322
18,COR-L23,0.362
19,COR-L 105,0.401
20,LOU-NH91,0.519
21,ChaGo-K-1,0.908
22,NCI-H1793,0.33
23,NCI-H2405,0.577

row,Cell Line,relative viability
1,HOP-62,0.437
2,HCC-44,0.988
3,SK-MES-1,0.303
4,LU99A,0.414
5,BEN,0.459
6,HARA,0.263
7,HCC-78,0.466
8,NCI-H322M,0.565
9,LCLC-97TM1,0.191
10,NCI-H2009,0.253
11,A-427,0.533
12,NCI-H460,0.191
13,NCI-H727,0.622
14,NCI-H1734,0.404
15,NCI-H520,0.286
16,NCI-H2347,0.447
17,SW 1573,0.398
18,NCI-H1395,0.618
19,201T,0.347
20,NCI-H1915,0.508
21,HCC-827,0.486
22,LXF-289,0.633
23,NCI-H23,0.467

row,Cell Line,relative viability
1,NCI-H650,0.423
2,CAL-12T,0.445
3,NCI-H1651,0.528
4,EPLC-272H,0.307
5,NCI-H2228,0.745
6,NCI-H1792,0.694
7,NCI-H1355,0.412
8,NCI-H3122,0.205
9,NCI-H1437,0.332
10,NCI-H1755,0.441
11,NCI-H2023,0.405
12,HCC-15,0.815
13,PC-3 [JPC-3],0.54
14,EKVX,0.379
15,LC-2-ad,0.511
16,NCI-H1648,0.291
17,NCI-H1975,0.602
18,SK-LU-1,0.268
19,ABC-1,0.558
20,NCI-H1944,0.356
21,NCI-H661,0.459
22,RERF-LC-KJ,1.06

# Same assay, conditions: first compound 0.005 µM
row,Cell Line,relative viability
1,NCI-H522,0.746
2,NCI-H2342,0.506
3,NCI-H838,0.29
4,NCI-H1650,0.415
5,NCI-H1993,0.719
6,NCI-H441,0.212
7,PC-14,0.601
8,LCLC-103H,0.503
9,NCI-H2126,0.356
10,EMC-BAC-2,0.41
11,NCI-H2085,0.512
12,HCC-366,0.432
13,NCI-H1666,0.624
14,NCI-H647,0.414
15,LK-2,0.279
16,NCI-H2087,0.224
17,NCI-H358,0.154
18,NCI-H2170,0.394
19,H3255,0.344
20,COR-L23,0.278
21,COR-L 105,0.37
22,LOU-NH91,0.548
23,ChaGo-K-1,0.786
24,NCI-H1793,0.346

row,Cell Line,relative viability
1,NCI-H2405,0.555
2,HOP-62,0.479
3,HCC-44,1.04
4,SK-MES-1,0.329
5,LU99A,0.391
6,BEN,0.433
7,HARA,0.308
8,SW 900,0.573
9,HCC-78,0.522
10,NCI-H322M,0.449
11,LCLC-97TM1,0.24
12,NCI-H2009,0.252
13,A-427,0.487
14,NCI-H460,0.236
15,NCI-H727,0.647
16,NCI-H1734,0.356
17,NCI-H520,0.158
18,NCI-H2347,0.419
19,SW 1573,0.348
20,NCI-H1395,0.531
21,201T,0.329
22,NCI-H1915,0.61
23,HCC-827,0.5
24,LXF-289,0.6

row,Cell Line,relative viability
1,NCI-H23,0.463
2,NCI-H650,0.329
3,CAL-12T,0.342
4,NCI-H1651,0.5
5,EPLC-272H,0.697
6,NCI-H2228,0.529
7,NCI-H1792,0.654
8,NCI-H1355,0.384
9,NCI-H3122,0.192
10,NCI-H1437,0.338
11,NCI-H1755,0.415
12,NCI-H2023,0.445
13,HCC-15,0.829
14,PC-3 [JPC-3],0.535
15,EKVX,0.423
16,LC-2-ad,0.491
17,NCI-H1648,0.278
18,NCI-H1975,0.613
19,SK-LU-1,0.423
20,ABC-1,0.793
21,NCI-H1944,0.374
22,NCI-H661,0.419
23,RERF-LC-KJ,1.09

# Same assay, conditions: first compound 0.01581 µM
row,Cell Line,relative viability
1,NCI-H522,0.908
2,NCI-H2342,0.535
3,NCI-H838,0.199
4,NCI-H1650,0.334
5,NCI-H1993,0.706
6,NCI-H441,0.23
7,PC-14,0.339
8,LCLC-103H,0.518
9,NCI-H2126,0.36
10,EMC-BAC-2,0.327
11,NCI-H2085,0.533
12,HCC-366,0.37
13,NCI-H1666,0.69
14,NCI-H647,0.363
15,LK-2,0.214
16,NCI-H2087,0.243
17,NCI-H358,0.153
18,NCI-H2170,0.381
19,H3255,0.33
20,COR-L23,0.191
21,COR-L 105,0.44
22,LOU-NH91,0.509
23,ChaGo-K-1,0.327
24,NCI-H1793,0.332

row,Cell Line,relative viability
1,NCI-H2405,0.415
2,HOP-62,0.423
3,HCC-44,0.963
4,SK-MES-1,0.352
5,LU99A,0.391
6,BEN,0.599
7,HARA,0.238
8,SW 900,0.501
9,HCC-78,0.497
10,NCI-H322M,0.512
11,LCLC-97TM1,0.235
12,NCI-H2009,0.0753
13,A-427,0.473
14,NCI-H460,0.169
15,NCI-H727,0.646
16,NCI-H1734,0.328
17,NCI-H520,0.183
18,NCI-H2347,0.384
19,SW 1573,0.307
20,NCI-H1395,0.718
21,201T,0.375
22,NCI-H1915,0.521
23,HCC-827,0.435
24,LXF-289,0.602

row,Cell Line,relative viability
1,NCI-H23,0.275
2,NCI-H650,0.367
3,CAL-12T,0.143
4,NCI-H1651,0.522
5,EPLC-272H,0.351
6,NCI-H2228,0.811
7,NCI-H1792,0.681
8,NCI-H1355,0.504
9,NCI-H3122,0.177
10,NCI-H1437,0.289
11,NCI-H1755,0.431
12,NCI-H2023,0.401
13,HCC-15,0.755
14,PC-3 [JPC-3],0.553
15,EKVX,0.465
16,LC-2-ad,0.486
17,NCI-H1648,0.237
18,NCI-H1975,0.705
19,SK-LU-1,0.422
20,ABC-1,0.904
21,NCI-H1944,0.353
22,NCI-H661,0.359
23,RERF-LC-KJ,1.07

# Compound: O=C(/C=C/c1cccnc1)NCCCCC1CCN(C(=O)c2ccccc2)CC1 [Daporinad] + O=C(c1cc(Cc2n[nH]c(=O)c3ccccc23)ccc1F)N1CCN(C(=O)C2CC2)CC1 [Olaparib] (partner 8 µM)
# Experiment: as above
# Conditions: first compound 0.0005 µM
# Procedure, shortened: as §1
row,Cell Line,relative viability
1,NCI-H522,0.659
2,NCI-H2342,0.409
3,NCI-H838,0.699
4,NCI-H1650,0.724
5,EBC-1,0.597
6,NCI-H1703,0.514
7,NCI-H1993,0.899
8,NCI-H441,0.488
9,PC-14,0.242
10,LCLC-103H,0.877
11,NCI-H596,0.647
12,NCI-H2126,0.945
13,EMC-BAC-2,0.387

# — the supplement of paper PMC10307832
